# Data from US20210251229A1, “PLANT REGULATOR COMPOSITIONS” (Suntton Company Limited, priority 2020, published 2021).
# Tests used:
# Assay type in all cases: in vivo
# [1] = system: spring wheat (Scotia variety); experiment: Spring wheat (Scotia variety) field trial, Arnprior, Ontario: spray at late booting stage, yield; conditions: EBR 0.05 ppm applied with Ethephon 0.18%
# Method: A spring wheat (Scotia variety) trial is carried out in Arnprior, Ontario, Canada. Typically, Ethephon alone has been used to reduce lodging in wheat. However, it can lead to the loss of yield, especially when it is sprayed at late booting stage.
# Cherry (Bing variety) = Cherry (Bing variety) field trials, Lodi, Calif.: growth regulation effects, spray at straw color; conditions: sprayed at straw color, GA3 4.0 ppm (EBR 0.1 ppm in the combination)
# Method: Two Cherry (Bing variety) trials are conducted in Lodi, Calif. to compare growth regulation effects of Gibberellic acid (GA3) and Composition of GA3 and 24-epibrassinolide (EBR). Typically, GA3 alone is commonly used on cherry at straw color for the elongation of storage life, but the application of GA3 often causes uneven ripening. [table]
# [2] = system: table grape (Flame variety); experiment: Table grape (Flame variety) field trial, Coachella, Calif.: spray at fruit size 12 mm; conditions: sprayed at fruit size 12 mm, GA3 2.00 ppm (EBR 0.05 ppm in the combination), 100 gal water per acre
# Excerpt: A table grape (Flame variety) trial was set up in Coachella, Calif. Typically, GA3 alone has been used as a growth stimulator on table grape at sizing (berry size 10-14 mm), but it can cause uneven ripening and size of berry. [table]
# [3] = system: table grape (Thomson green seedless variety); experiment: Table grape (Thomson green seedless variety) field trial, Mecca, Calif.: spray at fruit size 12 mm; conditions: sprayed at fruit size 12 mm, GA3 4.0 ppm (EBR 0.1 ppm in the combination)
# Method: A table grape (Thomson green seedless variety) trial is carried out in Mecca, Calif. Typically, GA3 alone has been used as growth stimulator on table grape at sizing (berry size 10-14 mm), but it can cause uneven ripening and size of berry. [table]
Structure (SMILES),Effect of EBR on loss of yield caused by Ethephon [1],Ripening / uniformity of color and size (Cherry (Bing variety)),Fruits picked (Cherry (Bing variety); 100 gal water per acre),Number of picks needed (Cherry (Bing variety); 100 gal water per acre),Fruits picked [2],Number of picks needed [2],Ripening / uniformity of color and size [3],Fruits picked ([3]; 100 gal water per acre)
"CC(C)[C@@H](C)[C@@H](O)[C@H](O)[C@@H](C)[C@H]1CC[C@H]2[C@@H]3COC(=O)[C@H]4C[C@H](O)[C@H](O)C[C@]4(C)[C@H]3CC[C@]12C [EBR, 24-epibrassinolide]",save/reverse the loss of yield,–,–,–,–,–,–,–
"C=C1C[C@]23C[C@@]1(O)CC[C@H]2[C@@]12C=C[C@H](O)[C@@](C)(C(=O)O1)[C@H]2[C@@H]3C(=O)O [GA3, Gibberellic acid]",–,the uneven ripening,Picked 85% of fruits,four,Picked 90% of fruits,four,the uneven ripening,Picked 85% of fruits
